Experiments:
[1] = Liquid, Vibrating tube method
[2] = refractive index (Na D-line) (dimensionless); settings: 298.15 K; 101.33 kPa; Liquid; Standard Abbe refractometry

CC(=O)N(C)C [N,N-dimethylethanamide]
[1]
Settings | mass density [kg/m3]
293.15 K, 300 kPa | 941
293.15 K, 2600 kPa | 943
293.15 K, 5100 kPa | 944
293.15 K, 10100 kPa | 947
293.15 K, 14900 kPa | 950
293.15 K, 20200 kPa | 953
293.15 K, 25200 kPa | 955
293.15 K, 30400 kPa | 958
298.15 K, 101.33 kPa | 936.729
303.2 K, 300 kPa | 932
303.2 K, 2500 kPa | 933
303.2 K, 5100 kPa | 935
303.2 K, 10200 kPa | 938
303.2 K, 15200 kPa | 941
303.2 K, 20200 kPa | 944
303.2 K, 24900 kPa | 947
303.2 K, 30200 kPa | 950
313.15 K, 100 kPa | 922
313.15 K, 2500 kPa | 924
313.15 K, 5200 kPa | 926
313.15 K, 10000 kPa | 929
313.15 K, 15200 kPa | 932
313.15 K, 20100 kPa | 935
313.15 K, 25200 kPa | 938
313.15 K, 30200 kPa | 941
323.15 K, 100 kPa | 912
323.15 K, 2500 kPa | 915
323.15 K, 5000 kPa | 917
323.15 K, 10100 kPa | 920
323.15 K, 15100 kPa | 923
323.15 K, 20100 kPa | 927
323.15 K, 25100 kPa | 930
323.15 K, 30500 kPa | 933
333.15 K, 100 kPa | 903
333.15 K, 2500 kPa | 906
333.15 K, 5100 kPa | 907
333.15 K, 10100 kPa | 911
333.15 K, 15100 kPa | 915
333.15 K, 20200 kPa | 918
333.15 K, 25000 kPa | 921
333.15 K, 30100 kPa | 924
343.15 K, 100 kPa | 894
343.15 K, 2600 kPa | 896
343.15 K, 5100 kPa | 898
343.15 K, 10000 kPa | 902
343.15 K, 15000 kPa | 906
343.15 K, 20200 kPa | 909
343.15 K, 25100 kPa | 913
343.15 K, 30300 kPa | 916
353.15 K, 100 kPa | 885
353.15 K, 2500 kPa | 887
353.15 K, 5200 kPa | 889
353.15 K, 10000 kPa | 893
353.15 K, 14900 kPa | 897
353.15 K, 20200 kPa | 901
353.15 K, 25200 kPa | 905
353.15 K, 30100 kPa | 908
363.15 K, 200 kPa | 876
363.15 K, 2500 kPa | 878
363.15 K, 5000 kPa | 880
363.15 K, 10100 kPa | 884
363.15 K, 15200 kPa | 888
363.15 K, 20300 kPa | 892
363.15 K, 25200 kPa | 896
363.15 K, 30000 kPa | 899
373.15 K, 100 kPa | 866
373.15 K, 2600 kPa | 868
373.15 K, 5100 kPa | 871
373.15 K, 10000 kPa | 875
373.15 K, 15100 kPa | 880
373.15 K, 20300 kPa | 884
373.15 K, 25100 kPa | 888
373.15 K, 30600 kPa | 892
383.15 K, 100 kPa | 856
383.15 K, 2500 kPa | 859
383.15 K, 5000 kPa | 861
383.15 K, 10000 kPa | 866
383.15 K, 15000 kPa | 870
383.15 K, 20300 kPa | 875
383.15 K, 25300 kPa | 879
383.15 K, 30200 kPa | 883
393.15 K, 15000 kPa | 870
403.15 K, 100 kPa | 837
403.15 K, 2500 kPa | 840
403.15 K, 5100 kPa | 843
403.15 K, 10200 kPa | 848
403.15 K, 15000 kPa | 853
403.15 K, 20700 kPa | 858
403.15 K, 25200 kPa | 862
403.15 K, 30900 kPa | 867
413.15 K, 100 kPa | 826
413.15 K, 2600 kPa | 830
413.15 K, 5000 kPa | 833
413.15 K, 10100 kPa | 838
413.15 K, 15100 kPa | 844
413.15 K, 20100 kPa | 849
413.15 K, 25200 kPa | 854
413.15 K, 30200 kPa | 858

Settings | refractive index
[2] | 1.43615
